# From ChEMBL document CHEMBL6120977, “Structure-Affinity-Pharmacokinetics Relationships of Novel 18F-Labeled 1,4-Diazepane Derivatives for Orexin 1 Receptor Imaging” (J Med Chem, 2024)
# How the values were obtained:
# Orexin receptor type 2 = molecular target: T1, Orexin receptor type 2 (Homo sapiens, UniProt O43614); test: Displacement of […]5IBOM from OX2R (unknown origin) transfected in CHO cells assessed as inhibition constant incubated for 1.5 hrs by automated gamma-counter analysis; assay type: cell-based
# T1 sequence (O43614 whole entry): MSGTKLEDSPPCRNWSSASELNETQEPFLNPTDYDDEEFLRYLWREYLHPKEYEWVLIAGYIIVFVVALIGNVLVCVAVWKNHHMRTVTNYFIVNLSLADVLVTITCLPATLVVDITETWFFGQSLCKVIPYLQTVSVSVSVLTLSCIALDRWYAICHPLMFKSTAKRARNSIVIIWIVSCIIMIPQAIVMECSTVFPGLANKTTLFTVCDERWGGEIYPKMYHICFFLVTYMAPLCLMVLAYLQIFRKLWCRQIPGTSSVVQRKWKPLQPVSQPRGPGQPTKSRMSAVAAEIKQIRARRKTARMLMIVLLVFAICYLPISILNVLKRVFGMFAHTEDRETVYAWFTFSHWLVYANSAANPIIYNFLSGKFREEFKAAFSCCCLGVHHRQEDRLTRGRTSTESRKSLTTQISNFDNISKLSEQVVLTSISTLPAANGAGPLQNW
# [1] = molecular target: T2, Orexin/Hypocretin receptor type 1 (Homo sapiens, UniProt O43613); test: Displacement of […]5IBOM from OX1R (unknown origin) transfected in CHO cells assessed as inhibition constant incubated for 1.5 hrs by automated gamma-counter analysis; assay type: cell-based
# T2 sequence (O43613 whole entry): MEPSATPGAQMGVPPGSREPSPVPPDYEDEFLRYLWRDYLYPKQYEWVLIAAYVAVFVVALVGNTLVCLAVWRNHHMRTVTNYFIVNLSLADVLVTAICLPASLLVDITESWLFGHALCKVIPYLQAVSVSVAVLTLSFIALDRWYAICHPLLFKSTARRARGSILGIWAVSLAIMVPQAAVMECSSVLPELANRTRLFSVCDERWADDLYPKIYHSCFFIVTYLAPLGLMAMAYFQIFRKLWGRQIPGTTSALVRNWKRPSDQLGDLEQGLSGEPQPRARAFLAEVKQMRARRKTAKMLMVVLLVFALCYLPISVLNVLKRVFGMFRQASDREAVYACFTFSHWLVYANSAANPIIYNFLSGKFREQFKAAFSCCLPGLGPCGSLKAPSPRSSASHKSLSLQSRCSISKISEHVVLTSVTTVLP
# [2] = Selectivity ratio of Ki for OX2R (unknown origin) transfected in CHO cells to Ki for OX1R (unknown origin) transfected in CHO cells; assay type: cell-based
# [3] = Biodistribution in male ddY mouse intestine administered intravenously and measured at 30 mins postinjection by gamma counter analysis; assay type: ADME, organism-based; conditions: in vivo, iv, 0.5 h
# [4] = Biodistribution in male ddY mouse brain administered intravenously and measured at 10 mins postinjection by gamma counter analysis; assay type: ADME, organism-based; conditions: in vivo, iv
# [5] = Biodistribution in male ddY mouse intestine administered intravenously and measured at 10 mins postinjection by gamma counter analysis; assay type: ADME, organism-based; conditions: in vivo, iv
# [6] = Biodistribution in male ddY mouse lung administered intravenously and measured at 60 mins postinjection by gamma counter analysis; assay type: ADME, organism-based; conditions: in vivo, iv, 1 h
# [7] = Biodistribution in male ddY mouse pancreas administered intravenously and measured at 2 mins postinjection by gamma counter analysis; assay type: ADME, organism-based; conditions: in vivo, iv
# [8] = Biodistribution in male ddY mouse kidney administered intravenously and measured at 60 mins postinjection by gamma counter analysis; assay type: ADME, organism-based; conditions: in vivo, iv, 1 h
# [9] = Biodistribution in male ddY mouse liver administered intravenously and measured at 10 mins postinjection by gamma counter analysis; assay type: ADME, organism-based; conditions: in vivo, iv
# [10] = Biodistribution in male ddY mouse blood administered intravenously and measured at 2 mins postinjection by gamma counter analysis; assay type: ADME, organism-based; conditions: in vivo, iv
# [11] = Biodistribution in male ddY mouse stomach administered intravenously and measured per organ at 2 mins postinjection by gamma counter analysis; assay type: ADME, organism-based; conditions: in vivo, iv
# [12] = Biodistribution in male ddY mouse pancreas administered intravenously and measured at 30 mins postinjection by gamma counter analysis; assay type: ADME, organism-based; conditions: in vivo, iv, 0.5 h
# [13] = Biodistribution in male ddY mouse liver administered intravenously and measured at 2 mins postinjection by gamma counter analysis; assay type: ADME, organism-based; conditions: in vivo, iv
# [14] = Biodistribution in male ddY mouse intestine administered intravenously and measured at 2 mins postinjection by gamma counter analysis; assay type: ADME, organism-based; conditions: in vivo, iv
# [15] = Biodistribution in male ddY mouse pancreas administered intravenously and measured at 10 mins postinjection by gamma counter analysis; assay type: ADME, organism-based; conditions: in vivo, iv
# [16] = Biodistribution in male ddY mouse blood administered intravenously and measured at 60 mins postinjection by gamma counter analysis; assay type: ADME, organism-based; conditions: in vivo, iv, 1 h
# [17] = Biodistribution in male ddY mouse liver administered intravenously and measured at 30 mins postinjection by gamma counter analysis; assay type: ADME, organism-based; conditions: in vivo, iv, 0.5 h
# [18] = Biodistribution in male ddY mouse bone administered intravenously and measured at 30 mins postinjection by gamma counter analysis; assay type: ADME, organism-based, Bone element; conditions: in vivo, iv, 0.5 h
# [19] = Biodistribution in male ddY mouse bone administered intravenously and measured at 60 mins postinjection by gamma counter analysis; assay type: ADME, organism-based, Bone element; conditions: in vivo, iv, 1 h
# [20] = Biodistribution in male ddY mouse spleen administered intravenously and measured at 2 mins postinjection by gamma counter analysis; assay type: ADME, organism-based; conditions: in vivo, iv
# [21] = Biodistribution in male ddY mouse kidney administered intravenously and measured at 10 mins postinjection by gamma counter analysis; assay type: ADME, organism-based; conditions: in vivo, iv
# [22] = Biodistribution in male ddY mouse stomach administered intravenously and measured per organ at 10 mins postinjection by gamma counter analysis; assay type: ADME, organism-based; conditions: in vivo, iv
# [23] = Biodistribution in male ddY mouse pancreas administered intravenously and measured at 60 mins postinjection by gamma counter analysis; assay type: ADME, organism-based; conditions: in vivo, iv, 1 h
# [24] = Biodistribution in male ddY mouse stomach administered intravenously and measured per organ at 30 mins postinjection by gamma counter analysis; assay type: ADME, organism-based; conditions: in vivo, iv, 0.5 h
# [25] = Biodistribution in male ddY mouse lung administered intravenously and measured at 30 mins postinjection by gamma counter analysis; assay type: ADME, organism-based; conditions: in vivo, iv, 0.5 h
# [26] = Biodistribution in male ddY mouse spleen administered intravenously and measured at 60 mins postinjection by gamma counter analysis; assay type: ADME, organism-based; conditions: in vivo, iv, 1 h
# [27] = Biodistribution in male ddY mouse bone administered intravenously and measured at 2 mins postinjection by gamma counter analysis; assay type: ADME, organism-based, Bone element; conditions: in vivo, iv
# [28] = Biodistribution in male ddY mouse kidney administered intravenously and measured at 30 mins postinjection by gamma counter analysis; assay type: ADME, organism-based; conditions: in vivo, iv, 0.5 h
# [29] = Biodistribution in male ddY mouse spleen administered intravenously and measured at 30 mins postinjection by gamma counter analysis; assay type: ADME, organism-based; conditions: in vivo, iv, 0.5 h
# [30] = Biodistribution in male ddY mouse blood administered intravenously and measured at 30 mins postinjection by gamma counter analysis; assay type: ADME, organism-based; conditions: in vivo, iv, 0.5 h
# [31] = Biodistribution in male ddY mouse lung administered intravenously and measured at 2 mins postinjection by gamma counter analysis; assay type: ADME, organism-based; conditions: in vivo, iv
# [32] = Biodistribution in male ddY mouse stomach administered intravenously and measured per organ at 60 mins postinjection by gamma counter analysis; assay type: ADME, organism-based; conditions: in vivo, iv, 1 h
# [33] = Biodistribution in male ddY mouse lung administered intravenously and measured at 10 mins postinjection by gamma counter analysis; assay type: ADME, organism-based; conditions: in vivo, iv
# [34] = Biodistribution in male ddY mouse heart administered intravenously and measured at 60 mins postinjection by gamma counter analysis; assay type: ADME, organism-based; conditions: in vivo, iv, 1 h
# [35] = Biodistribution in male ddY mouse brain administered intravenously and measured at 60 mins postinjection by gamma counter analysis; assay type: ADME, organism-based; conditions: in vivo, iv, 1 h
# [36] = Biodistribution in male ddY mouse spleen administered intravenously and measured at 10 mins postinjection by gamma counter analysis; assay type: ADME, organism-based; conditions: in vivo, iv
# [37] = Biodistribution in male ddY mouse blood administered intravenously and measured at 10 mins postinjection by gamma counter analysis; assay type: ADME, organism-based; conditions: in vivo, iv
# [38] = Biodistribution in male ddY mouse heart administered intravenously and measured at 30 mins postinjection by gamma counter analysis; assay type: ADME, organism-based; conditions: in vivo, iv, 0.5 h
# [39] = Biodistribution in male ddY mouse brain administered intravenously and measured at 30 mins postinjection by gamma counter analysis; assay type: ADME, organism-based; conditions: in vivo, iv, 0.5 h
# [40] = Biodistribution in male ddY mouse kidney administered intravenously and measured at 2 mins postinjection by gamma counter analysis; assay type: ADME, organism-based; conditions: in vivo, iv
# [41] = Biodistribution in male ddY mouse heart administered intravenously and measured at 10 mins postinjection by gamma counter analysis; assay type: ADME, organism-based; conditions: in vivo, iv
# [42] = Biodistribution in male ddY mouse heart administered intravenously and measured at 2 mins postinjection by gamma counter analysis; assay type: ADME, organism-based; conditions: in vivo, iv
# [43] = Biodistribution in male ddY mouse bone administered intravenously and measured at 10 mins postinjection by gamma counter analysis; assay type: ADME, organism-based, Bone element; conditions: in vivo, iv
# [44] = Biodistribution in male ddY mouse brain administered intravenously and measured at 2 mins postinjection by gamma counter analysis; assay type: ADME, organism-based; conditions: in vivo, iv
# [45] = Biodistribution in male ddY mouse liver administered intravenously and measured at 60 mins postinjection by gamma counter analysis; assay type: ADME, organism-based; conditions: in vivo, iv, 1 h
# [46] = Biodistribution in male ddY mouse intestine administered intravenously and measured at 60 mins postinjection by gamma counter analysis; assay type: ADME, organism-based; conditions: in vivo, iv, 1 h
smiles,measurement,setting,value
Cc1ccc(-n2nccn2)c(C(=O)N2CCCN(c3nc4cc(F)ccc4o3)C[C@@H]2C)c1,Ki,Orexin receptor type 2,8.64 nM
same,Ki,[1],2.35 nM
same,Ratio Ki,[2],3.68
Cc1ccc(-n2nccn2)c(C(=O)N2CCCN(c3nc4cc([18F])ccc4s3)C[C@@H]2C)c1,Drug uptake,[3],11.6 % ID/g
same,Drug uptake,[4],1.49 % ID/g
same,Drug uptake,[5],8.75 % ID/g
same,Drug uptake,[6],0.7 % ID/g
same,Drug uptake,[7],8.33 % ID/g
same,Drug uptake,[8],1.64 % ID/g
same,Drug uptake,[9],30.6 % ID/g
same,Drug uptake,[10],4.74 % ID/g
same,Drug uptake,[11],2.38 %ID
same,Drug uptake,[12],1.47 % ID/g
same,Drug uptake,[13],17.2 % ID/g
same,Drug uptake,[14],3.5 % ID/g
same,Drug uptake,[15],4.87 % ID/g
same,Drug uptake,[16],0.64 % ID/g
same,Drug uptake,[17],10.1 % ID/g
same,Drug uptake,[18],25.8 % ID/g
same,Drug uptake,[19],37.8 % ID/g
same,Drug uptake,[20],4.4 % ID/g
same,Drug uptake,[21],7.95 % ID/g
same,Drug uptake,[22],4.17 %ID
same,Drug uptake,[23],0.53 % ID/g
same,Drug uptake,[24],1.58 %ID
same,Drug uptake,[25],2.6 % ID/g
same,Drug uptake,[26],0.45 % ID/g
same,Drug uptake,[27],2.51 % ID/g
same,Drug uptake,[28],4.53 % ID/g
same,Drug uptake,[29],1.43 % ID/g
same,Drug uptake,[30],2.2 % ID/g
same,Drug uptake,[31],9.43 % ID/g
same,Drug uptake,[32],1.97 %ID
same,Drug uptake,[33],5.68 % ID/g
same,Drug uptake,[34],0.7 % ID/g
same,Drug uptake,[35],0.15 % ID/g
same,Drug uptake,[36],4.09 % ID/g
same,Drug uptake,[37],3.87 % ID/g
same,Drug uptake,[38],2.19 % ID/g
same,Drug uptake,[39],0.39 % ID/g
same,Drug uptake,[40],11.9 % ID/g
same,Drug uptake,[41],10.2 % ID/g
same,Drug uptake,[42],9.03 % ID/g
same,Drug uptake,[43],8.73 % ID/g
same,Drug uptake,[44],3.81 % ID/g
same,Drug uptake,[45],4.12 % ID/g
same,Drug uptake,[46],15.3 % ID/g
C[C@H]1CN(c2nc3ccc(F)cc3s2)CCCN1C(=O)c1cc(C(F)(F)F)ccc1-n1nccn1,Ki,Orexin receptor type 2,19 nM
same,Ki,[1],6.67 nM
same,Ratio Ki,[2],2.85
Cc1ccc2nc(N3CCCN(C(=O)c4cc(F)ccc4-n4nccn4)[C@@H](C)C3)sc2c1,Ki,Orexin receptor type 2,26.1 nM
same,Ki,[1],7.46 nM
same,Ratio Ki,[2],3.5
Cc1ccc(-n2nccn2)c(C(=O)N2CCCN(c3nc4ccc(F)cc4s3)C[C@@H]2C)c1,Ki,Orexin receptor type 2,20.6 nM
same,Ki,[1],2.14 nM
same,Ratio Ki,[2],9.63
C[C@H]1CN(c2nc3ccc(F)cc3s2)CCCN1C(=O)c1cc(F)ccc1-n1nccn1,Ki,Orexin receptor type 2,15.5 nM
same,Ki,[1],1.89 nM
same,Ratio Ki,[2],8.19
C[C@H]1CN(c2nc3ccc(F)cc3s2)CCCN1C(=O)c1ccccc1-n1nccn1,Ki,Orexin receptor type 2,5.17 nM
same,Ki,[1],0.64 nM
same,Ratio Ki,[2],8.08
C[C@H]1CN(c2nc3ccccc3s2)CCCN1C(=O)c1cc(F)ccc1-n1nccn1,Ki,Orexin receptor type 2,62.8 nM
same,Ki,[1],2.33 nM
same,Ratio Ki,[2],26.9
Cc1ccc(-n2nccn2)c(C(=O)N2CCCN(c3nc4ccc(F)cc4o3)C[C@@H]2C)c1,Ki,Orexin receptor type 2,156 nM
same,Ki,[1],17.7 nM
same,Ratio Ki,[2],8.8
Cc1ccc(-n2nccn2)c(C(=O)N2CCCN(c3nc4cc(F)ccc4s3)C[C@@H]2C)c1,Ki,Orexin receptor type 2,12.8 nM
same,Ki,[1],1.14 nM
same,Ratio Ki,[2],11.3
